Each structure is given as a SMILES string.

Experiment [1] deals with fatigue rats. Kind of experiment: Weighted swimming test in water immersion load fatigue rats (stress fatigue), intraperitoneal administration. It counts as in vivo, SD rats. Conditions: CQA 300 mg/kg intraperitoneally once a day for 5 days; swim on the 6th day with weight 8% of body weight, water of 23° C.; vs normal saline control. As for the experimental part:
SD rats (male, 7-week-old, n=4 to 12) were bred for 5 days in a cage wherein the water depth had been set at 1.5 cm (23±1° C.) (1 rat/1 cage), so as to produce fatigue rats. It is to be noted that the water in such a cage was exchanged with fresh one every day. From the first day, a test sample or a normal saline solution used as a control was intraperitoneally administered to the rats once a day. At the same time, rats, which had been bred on a common bedding, were defined as normal rats, and from the first day, a normal saline solution was intraperitoneally administered to them once a day. After completion of the breeding for 5 days, a weight that was 8% of the body weight was attached to the tail portion of each rat on the 6th day, and the rat was then allowed to swim in water of 23° C. The time required until the nose was submerged in water for 10 or more seconds was measured, and the thus measured time was evaluated as a fatigue level caused by stress. For the test group, chlorogenic acid (CQA 300 mg/kg) was used. For the control group, a normal saline solution was used.

Experiment [2] relates to fatigue rats. As to the kind of experiment: Weighted swimming test in water immersion central fatigue model rats, administration in drinking water. The format is in vivo, SD rats. Conditions: 0.25% (W/V) in drinking water (370 mg/kg/day), oral; 3 days water immersion; swim on the 4th day with weight 8% of body weight; vs distilled water control. As for the experimental part:
A test sample or distilled water used as a control was administered in the form of drinking water to SD rats (male, 6-week-old, n=3 to 6). Thereafter, the rats were bred for 3 days in a cage wherein the water depth had been set at 1.5 cm (23±1° C.) (1 rat/1 cage), so as to produce fatigue rats. It is to be noted that the water in such a cage was exchanged with fresh one every day. At the same time, rats, which had been bred on a common bedding, were defined as normal rats. After completion of the breeding for 3 days, a weight that was 8% of the body weight was attached to the tail portion of each rat on the 4th day, and the rat was then allowed to swim in water of 23° C. The time required until the nose was submerged in water for 10 or more seconds was measured, and the thus measured time was evaluated as a fatigue level caused by central fatigue (chronic fatigue). This model has been known as a central fatigue model (Non-Patent Document 1 and Neurosci. Lett. 352 (2003), 159-162). For the test group, 0.25% (W/V) chlorogenic acid (370 mg/kg/day) was used. For the control group, distilled water was used.

For `O=C(/C=C/c1ccc(O)c(O)c1)O[C@@H]1C[C@](O)(C(=O)O)C[C@@H](O)[C@H]1O` [chlorogenic acid], in the experiment with fatigue rats [1], the “fatigue level caused by stress (swimming time until the nose was submerged in water for 10 or more seconds)” value is recorded as “attenuated”. The “fatigue level caused by central fatigue (chronic fatigue) (swimming time until the nose was submerged in water for 10 or more seconds)” value in the experiment on fatigue rats [2] is “attenuated”.

These data come from patent publication US20100298430A1, “PROPHYLACTIC ANTISTRESS AGENT” (KAO CORPORATION, priority 2005, published 2010).
